Test results taken from patent US9428460B2, “N-[4-(quinolin-4-yloxy)cyclohexyl(methyl)](hetero)arylcarboxamides as androgen receptor antagonists, production and use thereof as medicinal products” (BAYER PHARMA AKTIENGESELLSCHAFT, priority 2012, dated 2016).

Experiments:
[1] = molecular target: human androgen receptor (full length, wild-type form) (Homo sapiens (Human), UniProt P10275); assay: Transactivation assay for the wild-type androgen receptor (PC-3 cells, MMTV-luciferase reporter); format: cell-based; conditions: in the presence of R1881, 16 hours
From the text: For determining the androgen receptor-dependent transcription, a cellular assay system was used, consisting of PC-3 cells (Kaighn et al., Invest. Urol. 17: 16-23, 1979), which express the human androgen receptor stably and recombinantly (full length, wild-type form, see Swiss-Prot Acc. No. P10275, Entry Version 159, Sequence Version 2). In addition, these PC3 cells contain a stably integrated reporter gene plasmid, which is based on the commercially available plasmid pGL4.14 (#E6691, Promega Corporation, Madison, Wis., USA) and contains the luciferase gene from the American firefly (Photinus pyralis) under the control of the MMTV promoter (Cato et al., EMBO J. 6: 363-368, 1987). These cells were propagated in routine cell culture at 37° C. and 5% CO2 in a medium containing 90% RPMI 1640 (Invitrogen GmbH, Darmstadt, Germany), 100 U penicillin, 100 μg/ml streptomycin (Invitrogen), 4 mM L-glutamine (Invitrogen), 10% fetal calf serum (FCS Serum Gold, PAA Laboratories GmbH, Cölbe, Germany), 600 μg/ml Geneticin (G418-sulphate, Invitrogen) and 10 μg/ml puromycin (Sigma Aldrich GmbH, Germany).
For carrying out the transactivation assays, approx. 1000 cells per well were plated out in a 384-well cell culture plate in a medium that contained activated charcoal-treated calf serum (FCS Serum Gold, PAA Laboratories) at a concentration of 5% (v/v). The test substances were added in a concentration series from 5.12×10^−12 to 1×10^−5 M in the presence of […] R1881 (methyltrienolone). The test plates were incubated overnight at 37° C. and 5% CO2. After 16 hours, 15 μl of Steady Glo Lysis and Detection reagent (E2550, Promega Corporation, Madison, Wis., USA) was added per well and the luminescence was read in a Topcount Luminometer (PerkinElmer, Waltham, Mass., USA) for 4 seconds per well. The luminescence values obtained were normalized, wherein 100% corresponded to the effect of the unstimulated control (without R1881), and 0% corresponded to the effect of the stimulated control (R1881 plus DMSO instead of test substance). The IC50 value was determined by regression analysis based on a four-parameter equation (minimum, maximum, IC50, Hill coefficient; Y=Max+(Min−Max)/(1+(X/IC50)^Hill)).

LNCaP cells = assay: Proliferation assay with LNCaP cells; format: cell-based; conditions: Homo sapiens, 168 h, in the presence of 1×10^−10 M R1881, seven days, AlamarBlue, read-out: IC50 LNCaP cell proliferation
Description: LNCaP cells (Horoszewicz et al., in “Models for Prostate Cancer” (ed. G. P. Murphy), Alan R. Liss, New York 1981, p. 115-132; Horoszewicz et al., Cancer Res. 43: 1809-1818, 1983) were plated out at a density of 2000 cells per well of a 96-well cell culture plate in RMPI 1640 medium (F1275, Biochrom AG), which contained activated charcoal-treated calf serum (FCS Serum Gold, PAA Laboratories) at a concentration of 5% (v/v). Three days later the cells were treated with the test substances in concentrations from 1×10^−8 to 1×10^−10 M in the presence of 1×10^−10 M R1881. Cell proliferation was determined seven days later after incubation for 2 hours with AlamarBlue (DAL1100, Invitrogen) (Nakayama et al., J Immunol Methods, 204(2): 205-8, 1997). The fluorescence values obtained were normalized, wherein 100% corresponded to the effect of the unstimulated control (without R1881), and 0% corresponded to the effect of the stimulated control (R1881 plus DMSO instead of test substance). The IC50 value was determined by regression analysis based on a four-parameter equation (minimum, maximum, IC50, Hill coefficient; Y=Max+(Min−Max)/(1+(X/IC50)^Hill)).

Chain of human androgen receptor (full length, wild-type form) (P10275 whole entry): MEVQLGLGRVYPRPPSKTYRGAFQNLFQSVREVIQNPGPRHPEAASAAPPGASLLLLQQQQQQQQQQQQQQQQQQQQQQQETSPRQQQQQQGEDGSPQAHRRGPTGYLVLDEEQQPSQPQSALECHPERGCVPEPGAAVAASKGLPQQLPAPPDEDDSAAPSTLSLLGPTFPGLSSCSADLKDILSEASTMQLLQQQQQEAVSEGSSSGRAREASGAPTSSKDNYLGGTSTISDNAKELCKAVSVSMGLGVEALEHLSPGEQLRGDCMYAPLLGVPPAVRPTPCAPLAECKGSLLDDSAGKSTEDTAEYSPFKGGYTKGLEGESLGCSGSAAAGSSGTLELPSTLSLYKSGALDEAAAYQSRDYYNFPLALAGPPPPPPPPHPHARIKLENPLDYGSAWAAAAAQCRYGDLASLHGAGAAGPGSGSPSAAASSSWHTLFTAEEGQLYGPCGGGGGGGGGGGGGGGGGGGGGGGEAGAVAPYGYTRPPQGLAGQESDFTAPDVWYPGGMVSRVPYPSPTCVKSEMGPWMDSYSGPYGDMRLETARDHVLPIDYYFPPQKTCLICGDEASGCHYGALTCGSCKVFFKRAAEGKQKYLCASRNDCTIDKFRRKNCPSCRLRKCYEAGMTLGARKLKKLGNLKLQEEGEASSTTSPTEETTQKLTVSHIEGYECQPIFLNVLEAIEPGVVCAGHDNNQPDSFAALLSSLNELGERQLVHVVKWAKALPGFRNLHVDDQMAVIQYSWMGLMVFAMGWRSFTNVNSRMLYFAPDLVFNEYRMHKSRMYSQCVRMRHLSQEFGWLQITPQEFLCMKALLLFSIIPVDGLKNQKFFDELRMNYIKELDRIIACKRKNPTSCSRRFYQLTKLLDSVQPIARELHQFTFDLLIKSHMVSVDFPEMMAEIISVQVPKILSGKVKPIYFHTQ

Compound	IC50 [1]	IC50 (LNCaP cells)
O=C(NC[C@H]1CC[C@H](Oc2ccnc3c(F)cccc23)CC1)c1ccc(F)cc1 [Example 1, N-({trans-4-[(8-fluoroquinolin-4-yl)oxy]cyclohexyl}methyl)-4-fluorobenzamide]	240 nM	170 nM
O=C(NC[C@H]1CC[C@H](Oc2ccnc3c(F)cccc23)CC1)c1ccon1 [Example 6, N-({trans-4-[(8-fluoroquinolin-4-yl)oxy]cyclohexyl}methyl)isoxazole-3-carboxamide]	740 nM	21 nM
O=C(N[C@H]1CC[C@H](Oc2ccnc3c(Br)cccc23)CC1)c1ccc(C(F)(F)F)c(F)c1 [Example 16, N-{trans-4-[(8-bromoquinolin-4-yl)oxy]cyclohexyl}-3-fluoro-4-(trifluoromethyl)benzamide]	463 nM	
Cc1ccc(C(=O)N[C@H]2CC[C@H](Oc3ccnc4c(C#N)cccc34)CC2)cc1F [Example 28, N-{trans-4-[(8-cyanoquinolin-4-yl)oxy]cyclohexyl}-3-fluoro-4-methylbenzamide]	45 nM	51 nM
Cc1ccc(C(=O)N[C@H]2CC[C@H](Oc3ccnc4c(Br)cccc34)CC2)cc1F [Example 14, N-{trans-4-[(8-bromoquinolin-4-yl)oxy]cyclohexyl}-3-fluoro-4-methylbenzamide]	68 nM	
Cc1nocc1C(=O)NC[C@H]1CC[C@H](Oc2ccnc3c(F)cccc23)CC1 [Example 4, N-({trans-4-[(8-fluoroquinolin-4-yl)oxy]cyclohexyl}methyl)-3-methylisoxazole-4-carboxamide]	210 nM	250 nM
O=C(N[C@H]1CC[C@H](Oc2ccnc3c(Br)cccc23)CC1)c1ccc(F)c(Cl)c1 [Example 18, N-{trans-4-[(8-bromoquinolin-4-yl)oxy]cyclohexyl}-3-chloro-4-fluorobenzamide]	190 nM	
Cc1cc(C(=O)NC[C@H]2CC[C@H](Oc3ccnc4c(Br)cccc34)CC2)no1 [Example 20, N-({trans-4-[(8-bromoquinolin-4-yl)oxy]cyclohexyl}methyl)-5-methylisoxazole-3-carboxamide]	690 nM	
O=C(N[C@H]1CC[C@H](Oc2ccnc3c(Br)cccc23)CC1)c1cccc(F)c1 [Example 12, N-{trans-4-[(8-bromoquinolin-4-yl)oxy]cyclohexyl}-3-fluorobenzamide]	93 nM	
O=C(NC[C@H]1CC[C@H](Oc2ccnc3c(F)cccc23)CC1)c1ccno1 [Example 5, N-({trans-4-[(8-fluoroquinolin-4-yl)oxy]cyclohexyl}methyl)-isoxazole-5-carboxamide]	460 nM	390 nM
O=C(N[C@H]1CC[C@H](Oc2ccnc3c(Br)cccc23)CC1)c1ccc(F)cc1 [Example 17, N-{trans-4-[(8-bromoquinolin-4-yl)oxy]cyclohexyl}-4-fluorobenzamide]	477 nM	
Cc1cc(C(=O)NC[C@H]2CC[C@H](Oc3ccnc4c(F)cccc34)CC2)no1 [Example 7, N-({trans-4-[(8-fluoroquinolin-4-yl)oxy]cyclohexyl}methyl)-5-methylisoxazole-3-carboxamide]	480 nM	97 nM
N#Cc1ccc(C(=O)NC[C@H]2CC[C@H](Oc3ccnc4ccccc34)CC2)cc1 [Example 22, N-{[trans-4-(4-quinolyloxy)cyclohexyl]methyl}-4-cyanobenzamide]	330 nM	87 nM
Cc1cc(C(=O)N[C@H]2CC[C@H](Oc3ccnc4c(C#N)cccc34)CC2)no1 [Example 26, N-{trans-4-[(8-cyanoquinolin-4-yl)oxy]cyclohexyl}-5-methylisoxazole-3-carboxamide]	18 nM	
O=C(N[C@H]1CC[C@H](Oc2ccnc3c(Br)cccc23)CC1)c1ccc(F)c(F)c1 [Example 13, N-{trans-4-[(8-bromoquinolin-4-yl)oxy]cyclohexyl}-3,4-difluorobenzamide]	170 nM	
N#Cc1cccc2c(O[C@H]3CC[C@H](NC(=O)c4ccc(F)c(Cl)c4)CC3)ccnc12 [Example 27, 3-chloro-N-{trans-4-[(8-cyanoquinolin-4-yl)oxy]cyclohexyl}-4-fluorobenzamide]	67 nM	
N#Cc1cccc2c(O[C@H]3CC[C@H](NC(=O)c4ccc(Cl)c(F)c4)CC3)ccnc12 [Example 29, 4-chloro-N-{trans-4-[(8-cyanoquinolin-4-yl)oxy]cyclohexyl}-3-fluorobenzamide]	61 nM	29 nM
N#Cc1cccc2c(O[C@H]3CC[C@H](NC(=O)c4cc(F)cc(F)c4)CC3)ccnc12 [Example 30, N-{trans-4-[(8-cyanoquinolin-4-yl)oxy]cyclohexyl}-3,5-difluorobenzamide]	39 nM	30 nM
O=C(NC[C@H]1CC[C@H](Oc2ccnc3c(F)cccc23)CC1)c1cc[nH]n1 [Example 8, N-({trans-4-[(8-fluoroquinolin-4-yl)oxy]cyclohexyl}methyl)-1H-pyrazole-3-carboxamide]	420 nM	1120 nM
Cc1cc(C(=O)N[C@H]2CC[C@H](Oc3ccnc4c(Br)cccc34)CC2)no1 [Example 2, N-{trans-4-[(8-bromoquinolin-4-yl)oxy]cyclohexyl}-5-methylisoxazole-3-carboxamide]	20 nM	
N#Cc1cccc2c(O[C@H]3CC[C@H](NC(=O)c4ccc(F)cc4)CC3)ccnc12 [Example 25, N-{trans-4-[(8-cyanoquinolin-4-yl)oxy]cyclohexyl}-4-fluorobenzamide]	140 nM	233 nM
N#Cc1ccc(C(=O)N[C@H]2CC[C@H](Oc3ccnc4c(Br)cccc34)CC2)cc1 [Example 15, N-{trans-4-[(8-bromoquinolin-4-yl)oxy]cyclohexyl}-4-cyanobenzamide]	261 nM	190 nM
O=C(NC[C@H]1CC[C@H](Oc2ccnc3c(Br)cccc23)CC1)c1ccon1 [Example 21, N-({trans-4-[(8-bromoquinolin-4-yl)oxy]cyclohexyl}methyl)isoxazole-3-carboxamide]	630 nM	
Cc1cc(C(=O)NC[C@H]2CC[C@H](Oc3ccnc4c(C#N)cccc34)CC2)no1 [Example 32, N-({trans-4-[(8-cyanoquinolin-4-yl)oxy]cyclohexyl}methyl)-5-methylisoxazole-3-carboxamide]	650 nM	560 nM
N#Cc1cccc2c(O[C@H]3CC[C@H](CNC(=O)c4ccon4)CC3)ccnc12 [Example 31, N-({trans-4-[(8-cyanoquinolin-4-yl)oxy]cyclohexyl}methyl)isoxazole-3-carboxamide]	720 nM	730 nM
O=C(N[C@H]1CC[C@H](Oc2ccnc3ccccc23)CC1)c1ccc(F)c(F)c1 [Example 3, N-[trans-4-(4-quinolyloxy)cyclohexyl]-3,4-difluorobenzamide]	45 nM	99 nM
